Literature values in US20110195110A1, “UREA COMPOUNDS USEFUL IN THE TREATMENT OF CANCER” (priority 2005, published 2011).

What was measured:
Bcr-Abl E255K mutant = conditions: biochemical assay
Bcr-Abl kinase = conditions: greater potency than Imatinib
[1] = system: Imatinib-resistant mutations of Bcr-Abl
early phase CML = conditions: patients with early phase CML

Row | potency of inhibition of Bcr-Abl kinase activity relative to Imatinib (Bcr-Abl kinase) | Structure (SMILES) | inhibition of the E255K mutant (Bcr-Abl E255K mutant) | inhibition of Imatinib-resistant mutations [1] | response at haematological and cytogenetic levels (early phase CML)
1 | 20 fold | Cc1cn(-c2cc(NC(=O)c3ccc(C)c(Nc4nccc(-c5cccnc5)n4)c3)cc(C(F)(F)F)c2)cn1 [AMN-107] | somewhat weak inhibition | inhibit most Imatinib-resistant mutations, except for T3151 | –
2 | – | Cc1ccc(NC(=O)c2ccc(CN3CCN(C)CC3)cc2)cc1Nc1nccc(-c2cccnc2)n1 [Imatinib] | – | – | greater than 90%
